# Test results: article PMC9926234, “Iterative computational design and crystallographic screening identifies potent inhibitors targeting the Nsp3 macrodomain of SARS-CoV-2” (Proceedings of the National Academy of Sciences of the …, 2023)
# Where two headings read alike, the source gives them in different places.
# Columns and labels:
# [1] = molecular target: T1, SARS-CoV-2 NSP3 Mac1 (Severe acute respiratory syndrome coronavirus 2, UniProt P0DTD1); type: binding; settings: for Refined occupancy: ligand occupancy after refinement (phenix.refine)
# [2] = system: SARS-CoV-2 NSP3 Mac1; assay: Overall hit call (binding in crystallographic soaking or the HTRF-based binding assay)
# Description: Supplement pnas.2212931120.sd01.xlsx, sheet "Compound Summary" | column: HIT*
# [3] = molecular target: T1, SARS-CoV-2 NSP3 Mac1; type: binding; design: contains a conserved macrodomain enzyme (Mac1); settings: for Spearman est (compound concentration vs apparent Tm): DSF dose responsiveness, 1 µM nsp3 mac1, adj p given
# In short: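 ΔTma values are thermal shifts relative to a co-located DMSO-only control, read with 5 µM Fluorescent Yellow dye. Each compound was tested in triplicate over seven concentrations (two-fold steps, top 1,000 or 100 μM). Spearman correlation of concentration versus ΔTma tested whether the shift was dose-responsive.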
# [4] = molecular target: T1, SARS-CoV-2 NSP3 Mac1; assay: biochemical; type: binding; settings: for IC50: HTRF ADPr-peptide displacement from SARS-CoV-2 Mac1, read-out: IC50
# [5] = PanDDA 1-BDC of the event, compound stock 100 mM, Echo dispense volume 40 nl
# [6] = PanDDA 1-BDC of the event, compound stock 100 mM, Echo dispense volume 80 nl
# [7] = PanDDA event map, 1 minus background density correction, crystal soaking of Mac1
# [8] = crystal soak, compound stock 100 mM, Echo dispense volume 40 nl
# [9] = crystal soak, compound stock 100 mM, Echo dispense volume 80 nl
# [10] = ligand modeled in structure, compound stock 100 mM, Echo dispense volume 80 nl
# [11] = PanDDA event map background density correction, crystal soak, compound concentration 100 mM
# [12] = ligand modeled in the crystal structure, crystal soak, compound concentration 100 mM
# [13] = PanDDA 1-BDC value of the event, crystal soak, compound concentration 100 mM, per dataset
# [14] = crystal soak, compound concentration 100 mM, per dataset
smiles,measurement,setting,value
[O-][n+]1cccc(Nc2ncnc3[nH]c4cc(F)ccc4c23)c1 [LRH-0031],1-BDC,[1]; [5],0.18
same,1-BDC,[1]; [6],0.17
same,1-BDC (PanDDA),[1]; [7],0.17
same,PanDDA hit?,[1]; [8],TRUE
same,PanDDA hit?,[1]; [9],TRUE
same,Modeled?,[1]; [10],TRUE
same,Refined occupancy,[1]; crystal soaking of Mac1,34
same,Comment (ligand modelled in the crystal structure),[1]; what was observed in density instead of the vendor structure,pyrimido-indole core only
same,HIT*,[2],Y
CNc1cnc(C(=O)N2CC(c3noc(O)n3)C2)cn1.O=C(O)C(F)(F)F [Z6567],1-BDC,[1]; [11],0.31
same,1-BDC (PanDDA),[1]; [7],0.31
same,Modeled?,[1]; [12],TRUE
same,Refined occupancy,[1]; crystal soaking of Mac1,62
same,HIT*,[2],Y
Cc1oc(CNc2ncnc3[nH]c4ccccc4c23)cc1C(=O)O [Z3124],HIT*,[2],Y
CCNc1ncc(C(=O)NCCn2cnc(C(=O)O)c2)s1 [Z6684],1-BDC (PanDDA),[1]; [7],0.1
same,1-BDC,"[1]; PanDDA event map, crystal soak, Compound_concentration 100 mM, Echo_dispense_volume 40 nl",0.1
same,PanDDA hit?,"[1]; crystal soak, Compound_concentration 100 mM, Echo_dispense_volume 40 nl, PanDDA run (background map) dmso_34, nohits_35 or nohits_62",TRUE
same,Modeled?,"[1]; ligand modeled, crystal soak, Compound_concentration 100 mM, Echo_dispense_volume 40 nl",TRUE
same,Refined occupancy,[1]; crystal soaking of Mac1,20
same,HIT*,[2],Y
CC(=O)Nc1nc(C)c(S(=O)(=O)Nc2ccc(C)c(C#N)c2)s1 [Z6707],HIT*,[2],Y
O=C(O)CC1CC(CNC(=O)c2cncc3sccc23)C1 (centres unmarked) [Z1558],HIT*,[2],Y
Cn1ccn2c(CCNC(=O)[C@H]3C[C@H]3C(=O)O)nnc2c1=O [Z6744],1-BDC,[1]; [11],0.3
same,1-BDC (PanDDA),[1]; [7],0.3
same,Modeled?,[1]; [12],TRUE
same,Refined occupancy,[1]; crystal soaking of Mac1,60
same,HIT*,[2],Y
Cc1oc(C(N)=O)cc1S(=O)(=O)Nc1cnc(Cl)c(C#N)c1 [Z6746],HIT*,[2],Y
O=C(NS(=O)(=O)Cc1ccc(Br)c(F)c1)c1cnn2ccccc12 [Z3209],HIT*,[2],Y
CN(Cc1ccccn1)c1ncnc2[nH]c3cc(F)ccc3c12 [LRM-0028],1-BDC,[1]; [5],0.14
same,1-BDC,[1]; [6],0.15
same,1-BDC (PanDDA),[1]; [7],0.15
same,PanDDA hit?,[1]; [8],TRUE
same,PanDDA hit?,[1]; [9],TRUE
same,Modeled?,[1]; [10],TRUE
same,Refined occupancy,[1]; crystal soaking of Mac1,30
same,HIT*,[2],Y
Cc1oc(C(N)=O)cc1S(=O)(=O)Nc1ccc(Br)c(C#N)c1 [Z6708],HIT*,[2],Y
O=C(O)Cc1cccc(CNC(=O)c2ncnc3ccsc23)c1 [Z5712],HIT*,[2],Y
O=C(NC1c2cccc(O)c2CC1C(=O)O)c1ccc(Nn2ccnc2)cc1 (centres unmarked) [Z8539_0011],Spearman est (compound concentration vs apparent Tm),[3],0.18
same,DSF max dTma,[3]; maximal thermal upshift,1.23 ˚C
same,1-BDC,[1]; [13],0.25
same,1-BDC,[1]; [7],0.35
same,PanDDA hit?,[1]; [14],TRUE
same,Modeled?,"[1]; ligand modeled from this dataset, compound concentration 100 mM, Echo dispense volume 40 or 80 nl",TRUE
same,Refined occupancy,[1]; crystal soaking of Mac1,70
same,HIT*,[1]; true hit = binding in crystallographic soaking or the HTRF-based binding assay,Y
same,IC50,[4],19 µM
same,Ki,"[4]; Ki estimation from HTRF-derived IC50, Cheng-Prusoff, peptide 400nM, Kd 2.68µM, read-out: Ki***",16.5 µM
COC(=O)Nc1ccc(C(=O)NC2c3ccccc3CC2C(=O)O)cc1 (centres unmarked) [Z8531],Spearman est (compound concentration vs apparent Tm),[3],0.72
same,DSF max dTma,[3]; maximal thermal upshift vs DMSO control,0.6 °C
same,1-BDC,[1]; [13],0.04
same,1-BDC,[1]; [7],0.04
same,PanDDA hit?,[1]; [14],TRUE
same,Modeled?,"[1]; ligand modeled in the crystal structure, crystal soak, compound concentration 100 mM, per dataset",TRUE
same,Refined occupancy,[1]; crystal soaking of Mac1,8
same,HIT*,[1]; overall hit flag: binding in crystallographic soaking or the HTRF-based binding assay,Y
same,IC50,[4],> 250 µM
